“And” between values parts separate entries of the source, which are not always exact repeats. Equal entries are not always repeated. Structures can show the parent of a compound that is named as a salt.
What was measured:
rat α3β4 nAChRs = target: T1, rat α3β4 nAChRs (Rattus norvegicus, UniProt P04757+P12392); assay: cell-based; type: cell-based; settings: for IC50: inhibition of 86Rb+ efflux stimulated by 100 μM nicotine, KXα3β4R2 cells, mean ± standard error; for type of receptor blockade: nicotine concentration-response curves in presence of antagonist
T1 construct: expressed in transfected cells
Procedure: Cell Culture. The cell line KXα3β4R2 was established previously by stably cotransfecting human embryonic kidney-293 cells with the rat α3 and β4 nAChR subunits genes (Xiao et al., 1998). Cells were maintained in minimum essential medium supplemented with 10% fetal bovine serum, 100 units/ml penicillin G, […], and 0.7 mg/ml of geneticin (G418) at 37° C. with 5% CO2 in a humidified incubator.
^86Rb^+ Efflux Assay. Function of nAChRs expressed in the transfected cells was measured using a ^86Rb^+ efflux assay as described previously (Xiao et al., 1998). In brief, cells in the selection growth medium were plated into 24-well plates coated with poly(D-lysine). The plated cells were grown at 37° C. for 18 to 24 h to reach 70 to 95% confluence. The cells were then incubated in growth medium (0.5 ml/well) containing ^86Rb^+ (2 μCi/ml) for 4 h at 37° C. The loading mixture was then aspirated and the cells were washed three times with buffer (15 mM HEPES, 140 mM NaCl, 2 mM KCl, 1 mM MgSO4, 1.8 mM CaCl, 11 mM glucose, pH 7.4; 1 ml/well) for 30 s, 5 min, and 30 s, respectively. One milliliter of buffer, with or without compounds to be tested, was then added to each well. After incubation for 2 min, the assay buffer was collected for measurements of ^86Rb^+ released from the cells. Cells were then lysed by adding 1 ml of 100 mM NaOH to each well, and the lysate was collected for determination of the amount of ^86Rb^+ that was in the cells at the end of the efflux assay. Radioactivity of assay samples and lysates was measured by liquid scintillation counting. Total loading (cpm) was calculated as the sum of the assay sample and the lysate of each well. The amount of ^86Rb^+ efflux was expressed as a percentage of ^86Rb^+ loaded.
Experiments with antagonists were done in two different ways. […] EC50, Emax, and IC50, values were determined by nonlinear least-squares regression analyses (GraphPad, San Diego, Calif.).

[1] = tested on: glutamate stimulated catecholamine release; type: cell-based, rat; settings: 1 mM glutamate for 2 min, hippocampus and striatum slices; for block of glutamate stimulated catecholamine release: 10 μM
Procedure: The hippocampus and striatum are both important and well-studied anatomical areas of the brain. The hippocampus is associated with learning and memory functions while the striatus is linked to motor function. Slices were loaded with [^3H]norepinephrine or [^3H]dopamine and then exposed to 1 mM glutamate for 2 min in the absence or presence of MK-801, d-methadone or (+)-EDDP. The baseline release was measured in the absence of glutamate.

Swiss-Webster mice = assay: Warm-water tail-withdrawal nociception assay; type: in vivo; settings: either enantiomer, 40 μg intracerebrally
Procedure: To confirm their suspicions that the compounds of the present invention, do in fact have an analgesic effect, the inventors experimented with mice. […] Each enantiomer of EDDP, in 40 μg doses, was administered intracerebrally to the mice. The animals were monitored for baseline sensitivity using the warm-water tail-withdrawal nociception assay and the latency to tail withdrawal was monitored as a measurement of analgesia. […] Thus, it is clear that the d-methadone metabolite EDDP has significant analgesic effect. Likewise, the metabolite EMDP and the structural analogs of both EDDP and EMDP are expected to do the same.

[2] = cited from earlier work
[3] = tested on: morphine, methamphetamine, and nicotine self-administration; settings: rats, 5-30 mg/kg; cited from earlier work
[4] = target: T2, α3β4 receptor agonist recognition sites (Rattus norvegicus, UniProt P04757+P12392); assay: [3H]EB ligand binding in membrane homogenates from KXα3β4R2 cells
T2 construct: expressed in transfected cells
Source text: Bound and free ligands were separated by vacuum filtration through Whatman GF/C filters treated with 0.5% polyethylenimine. […] Specific binding was defined as the difference between total binding and nonspecific binding.

[5] = blocking nicotine-stimulated 86Rb+ efflux

T1 sequence (P04757 26-499): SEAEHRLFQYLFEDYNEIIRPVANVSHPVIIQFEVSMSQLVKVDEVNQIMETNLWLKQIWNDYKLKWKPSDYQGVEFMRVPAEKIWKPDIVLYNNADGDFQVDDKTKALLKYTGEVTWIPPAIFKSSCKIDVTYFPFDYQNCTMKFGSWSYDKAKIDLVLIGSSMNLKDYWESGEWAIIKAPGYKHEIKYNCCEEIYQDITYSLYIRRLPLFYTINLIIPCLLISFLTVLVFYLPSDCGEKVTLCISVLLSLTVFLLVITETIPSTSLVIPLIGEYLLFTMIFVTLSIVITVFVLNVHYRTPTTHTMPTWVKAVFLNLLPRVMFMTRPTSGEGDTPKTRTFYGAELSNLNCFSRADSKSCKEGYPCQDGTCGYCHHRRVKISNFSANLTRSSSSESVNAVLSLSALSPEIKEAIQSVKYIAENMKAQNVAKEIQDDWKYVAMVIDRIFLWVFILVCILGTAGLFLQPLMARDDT
T1 sequence (P12392 21-495): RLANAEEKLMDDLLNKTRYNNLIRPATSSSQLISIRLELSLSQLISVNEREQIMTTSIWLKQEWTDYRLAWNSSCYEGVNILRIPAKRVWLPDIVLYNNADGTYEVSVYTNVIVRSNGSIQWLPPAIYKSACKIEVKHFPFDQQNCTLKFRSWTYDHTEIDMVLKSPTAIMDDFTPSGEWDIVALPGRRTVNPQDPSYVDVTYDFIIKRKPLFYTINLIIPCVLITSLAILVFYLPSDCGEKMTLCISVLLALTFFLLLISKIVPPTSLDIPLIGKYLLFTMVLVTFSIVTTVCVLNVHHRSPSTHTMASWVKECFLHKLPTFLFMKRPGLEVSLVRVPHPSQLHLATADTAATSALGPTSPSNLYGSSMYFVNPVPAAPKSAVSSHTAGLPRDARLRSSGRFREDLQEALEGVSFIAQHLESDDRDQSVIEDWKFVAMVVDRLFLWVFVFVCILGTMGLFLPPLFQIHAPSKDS
T2 sequence (P04757 26-499): as the sequence (P04757 26-499) above
T2 sequence (P12392 21-495): as the sequence (P12392 21-495) above

**Q.** What does the source list for CCC(=O)C(C[C@H](C)N(C)C)(c1ccccc1)c1ccccc1.Cl [(+)-Methadone, S-(+)-methadone hydrochloride]?
**A.** IC50 (rat α3β4 nAChRs): 2.5 ± 0.2 µM; block of glutamate stimulated catecholamine release [1]: partial block

**Q.** Which IC50 (rat α3β4 nAChRs) does the source give for CCC(=O)O[C@](Cc1ccccc1)(c1ccccc1)[C@H](C)CN(C)C [Propoxyphene, (+)-α-propoxyphene hydrochloride] here?
**A.** The IC50 was 2.7 ± 0.4 µM.

**Q.** Which “potency relative to mecamylamine” value (rat α3β4 nAChRs; [5]) does the source give for C/C=C1/N(C)C(C)CC1(c1ccccc1)c1ccccc1 (stereo not shown) [EDDP] here?
**A.** The value was “twice as potent”.

**Q.** And the “potency relative to methadone” value (rat α3β4 nAChRs; [5])?
**A.** The value was “about 5 times more potent”.

**Q.** And the IC50 (rat α3β4 nAChRs)?
**A.** Its IC50 is roughly 0.4 µM.

**Q.** And the tail withdrawal latency (Swiss-Webster mice)?
**A.** The tail withdrawal latency was “increased”.

**Q.** And the peak plasma concentration ([2]; following administration of methadone)?
**A.** The peak plasma concentration was roughly 0.2 µM.

**Q.** Which results are given for “R-(+)-2-ethyl-1,5-dimethyl-3,3-diphenylpyrrolinium perchlorate [(+)-EDDP]”?
**A.** IC50 (rat α3β4 nAChRs): 0.4 ± 0.2 µM; type of receptor blockade (rat α3β4 nAChRs): noncompetitive blockers; effect on glutamate stimulated catecholamine release ([1]; until 100 μM): no effect

**Q.** For CCC(=O)O[C@](Cc1ccccc1)(c1ccccc1)[C@H](C)CNC [Norpropoxyphene, (+)-α-N-norpropoxyphene maleate], which IC50 (rat α3β4 nAChRs) is on record?
**A.** Its IC50 is 1.8 ± 0.1 µM.

**Q.** What does the source list for C[C@]12N[C@H](Cc3ccccc31)c1ccccc12 [MK-801]?
**A.** IC50 (rat α3β4 nAChRs): 26.6 ± 9.6 µM; block of glutamate stimulated catecholamine release [1]: partial block

**Q.** With CCC1=N[C@H](C)CC1(c1ccccc1)c1ccccc1 [(+)-EMDP, R-(+)-2-ethyl-5-methyl-3,3-diphenyl-1-pyrroline hydrochloride] as the molecule, how does the IC50 (rat α3β4 nAChRs) read?
**A.** The IC50 was 5.8 ± 1 µM.

**Q.** For CCC1=N[C@@H](C)CC1(c1ccccc1)c1ccccc1 [(−)-EMDP, S-(−)-2-ethyl-5-methyl-3,3-diphenyl-1-pyrroline hydrochloride], which IC50 (rat α3β4 nAChRs) is on record?
**A.** Its IC50 is 6.3 ± 0.7 µM.

**Q.** Which results are given for COc1ccc2c(c1)[C@]13CCCC[C@@H]1[C@H](C2)N(C)CC3 [Dextromethorphan]?
**A.** IC50 (rat α3β4 nAChRs): 8.9 ± 1.1 µM; self-administration of morphine, methamphetamine, and nicotine [3]: decrease

**Q.** For CN1CC[C@@]23CCCC[C@@H]2[C@@H]1Cc1ccc(O)cc13 [Dextrorphan], which IC50 (rat α3β4 nAChRs) is on record?
**A.** The IC50 was 29.6 ± 5.7 µM.

**Q.** With CC[C@H](OC(C)=O)C(C[C@H](C)N(C)C)(c1ccccc1)c1ccccc1.Cl [LAAM, (−)-α-acetylmethadol hydrochloride] as the molecule, how does the IC50 (rat α3β4 nAChRs) read?
**A.** Its IC50 is 2.5 ± 0.4 µM.

**Q.** And the “type of receptor blockade” value (rat α3β4 nAChRs)?
**A.** Its value is “noncompetitive blockers”.

**Q.** What does the source list for CCC(=O)C(CC(C)N(C)C)(c1ccccc1)c1ccccc1 (racemic) [methadone, (O)-Methadone hydrochloride]?
**A.** competition for [3H]EB binding sites (in words) [4]: does not compete effectively; block of nicotine-stimulated 86Rb+ efflux (rat α3β4 nAChRs; 100 μM nicotine plus 200 μM methadone): completely blocked; IC50 (rat α3β4 nAChRs): ~2 µM; increase of 86Rb+ efflux (agonist effect) (rat α3β4 nAChRs; methadone alone at concentrations up to 1 mM): did not increase; type of receptor blockade (rat α3β4 nAChRs): noncompetitive mechanism; steady-state plasma concentration ([2]; patients taking methadone chronically): exceed 1 μM; plasma concentration following a single dose ([2]; single dose of methadone): approximately 0.25 μM

**Q.** Which “stimulation of 86Rb+ efflux over basal levels” value (rat α3β4 nAChRs) does the source give for CN1CCCC1c1cccnc1 (stereo not shown) [nicotine] here?
**A.** Its value is “approximately 10 fold”.

**Q.** With CCC1=[N+](C)[C@@H](C)CC1(c1ccccc1)c1ccccc1 [(−)-EDDP, S-(−)-2-ethyl-1,5-dimethyl-3,3-diphenylpyrrolinium perchlorate] as the molecule, how does the IC50 (rat α3β4 nAChRs) read?
**A.** The IC50 was 0.4 ± 0.1 µM.

**Q.** Which IC50 (rat α3β4 nAChRs; hydrochloride) does the source give for CCC(=O)C(C[C@@H](C)N(C)C)(c1ccccc1)c1ccccc1 [(−)-Methadone, R-(−)-methadone hydrochloride] here?
**A.** Its IC50 is 1.9 µM and 2 µM.

— patent US20070129434A1, “Analgesics and methods of use” (priority 2002, published 2007)
